The values below come from US7528124B2, “1,3-dihydro-2H-indol-2-one derivative” (Taisho Pharmaceutical Co., Ltd., priority 2003, dated 2009).

The data set can be described thus: Measurement of drug concentration in plasma and brain following oral administration to rats (LC/MS/MS). The format is in vivo, Sprague-Dawley rats. Particulars: rat; for concentration at 1 h: Table 2, 1 hour after administration. As to the method:
Measurement of Drug Concentration in Plasma and Brain following Oral Administration to Rats
The compound of Example 1 and compound A (WO01/55130, listed in EXEMPLE 1) were orally administered to Sprague-Dawley rats (male, 8 weeks) at a dose of 5 mL/kg (10 mg/kg) as solutions (each compound was dissolved with 0.03 mol/L HCl containing 5% Cremophor EL, and concentration was prepared by 2 mg/ml).
Blood was collected from the tail vein at 1 and 2 hours after administration. Immediately the brain was excised, 20% homogenate was prepared with distilled water, for assay sample. Similarly, 0.3 mL of blood was collected from the tail vein at 2, 4, 8, and 24 hours following administration, and the plasma following centrifugation was used as a sample.
The concentrations of the compound of Example 1 and compound A in plasma were measured using liquid chromatography tandem mass spectrometry (LC/MS/MS). Specifically, 200 μL of acetonitrile was added to 50 μL of plasma or brain homogenate, vortex mixed and centrifuged. The resulting supernatant was put in a liquid chromatograph with an Agilent Zorbax SB-C18 5 μm column (50 mm long, 2.1 mm in diameter). The elute was 0.1% acetic acid/acetonitrile containing 0.1% acetic acid. The MS/MS detection were performed using a Sciex API3000 LC/MS/MS system with ESI for ionization, in positive ions and MRM mode for monitoring. The m/z 632→472 and m/z 630→472 were monitored for the compound of Example 1 and compound A, respectively.
The concentration of plasma and brain at each sampling point and mean plasma levels after oral administration were shown in Table 2 and Table 3, respectively.

Each structure is given as a SMILES string. Like-named read-outs stand apart in the source and are kept apart here.

With `COc1ccc(S(=O)(=O)N2C(=O)C(c3ccccc3OC)(N3C[C@H](F)C[C@H]3C(=O)N(C)C)c3cc(Cl)ccc32)c(OC)c1` (single isomer, unassigned) [Example 1], the concentration at 1 h is 35 ng/g (male, Sprague-Dawley, brain, po, 10 mg/kg, brain homogenate, average of three, read-out: Drug concentration, brain, 1 hour) and 440 ng/mL (male, Sprague-Dawley, plasma, po, 10 mg/kg, average of three, read-out: Drug concentration, plasma, 1 hour). Also, the concentration at 2 h reads like this: (male, Sprague-Dawley, plasma, po, 10 mg/kg, Table 2, 2 hours after administration, average of three, read-out: Drug concentration, plasma, 2 hours) 219 ng/mL; (male, Sprague-Dawley, plasma, po, 10 mg/kg, Table 3, serial tail vein sampling, 2 hours, average of three, read-out: Drug concentration in plasma, 2 hours) 139 ng/mL; (male, Sprague-Dawley, Table 2, oral 10 mg/kg, 2 hours after administration, brain homogenate, average of three, ND: below the quantification detection limit of 5 ng/mL, read-out: Drug concentration, brain, 2 hours) 11 ng/g. For the setting “male, Sprague-Dawley, plasma, po, 10 mg/kg, Table 3, serial tail vein sampling, 4 hours, average of three”, this compound showed a concentration at 4 h of 51 ng/mL. Where the note is “male, Sprague-Dawley, plasma, po, 10 mg/kg, Table 3, serial tail vein sampling, 8 hours, average of three”, this compound returned a concentration at 8 h of 10 ng/mL. For the same compound, the “plasma levels compared with compound A” value (oral 10 mg/kg, after 2 hours) is “higher plasma levels”. Moreover, the “brain levels compared with compound A” value (oral 10 mg/kg, at 1 and 2 hours) is “higher than those of compound A”.
